Experimental findings from ChEMBL document CHEMBL5058564, “EUbOPEN Chemogenomics Library 2 (Incucyte)” (2022) are described below.

Holding throughout (format): toxicity, cell-based
The test system of data set [1] is U2OS. Briefly: Incucyte cell viability with U2OS. The note with it: human, 10 µM, compound concentration 10 uM.
For data set [2], the system named is Fibroblast. The data set is described as follows: Incucyte cell viability with human fibroblast. The note with it: 10 µM, compound concentration 10 uM.
The test system of data set [3] is HEK-293T. Briefly: Incucyte cell viability with HEK293T. The note with it: human, 10 µM, compound concentration 10 uM.
Where [4] appears, read: 0 h, replicate number 1, timepoint 0 hours.
[5] abbreviates: 0 h, replicate number 2, timepoint 0 hours.
Setting [6] is: 6 h, replicate number 1, timepoint 6 hours.
Setting [7] is: 6 h, replicate number 2, timepoint 6 hours.
Setting [8] is: 12 h, replicate number 1, timepoint 12 hours.
Where [9] appears, read: 12 h, replicate number 2, timepoint 12 hours.
The mark [10] stands for this setting: 18 h, replicate number 1, timepoint 18 hours.
Setting [11] is: 18 h, replicate number 2, timepoint 18 hours.
Setting [12] is: 24 h, replicate number 1, timepoint 24 hours.
Setting [13] is: 24 h, replicate number 2, timepoint 24 hours.
Also: unitless GR value; below 1 slowed growth and below 0 cell loss.

As for `CCCCCCCC/C=C\CCCCCCCC(N)=O` [OLEAMIDE], the “Growth Rate” value in data set [1] (setting [4]) was 0.24; in data set [1] (setting [5]) it was 0.51; in data set [1] (setting [6]), 0.78; in data set [1] (setting [7]) it was 1; in data set [1] (setting [8]), 0.75; in data set [1] (setting [9]), 0.79. For the same compound, the “Growth Rate” value in data set [1] (setting [10]) was determined as 0.76; in data set [1] (setting [11]) it was 0.89; in data set [1] (setting [12]), 0.98; in data set [2] (setting [4]), 0.63; in data set [2] (setting [5]), 0.02; in data set [2] (setting [7]), 0.82. The “Growth Rate” value came to 0.61 in data set [3] (setting [4]); 0.35 in data set [3] (setting [5]); 0.79 in data set [3] (setting [6]); 0.8 in data set [3] (setting [8]); 0.99 in data set [3] (setting [9]); 0.89 in data set [3] (setting [10]). The “Growth Rate” value is listed as 0.94 in data set [3] (setting [11]), 0.96 in data set [3] (setting [12]) and 1 in data set [3] (setting [13]).
Regarding `CS(=O)(=O)c1ccc(C(=O)Nc2ccc(Cl)c(-c3ccccn3)c2)c(Cl)c1` [VISMODEGIB], the “Growth Rate” value in data set [1] (setting [5]) is given as -1; in data set [1] (setting [6]) it was 0.94; in data set [1] (setting [7]) it was 0.8; in data set [1] (setting [9]), 0.78; in data set [1] (setting [11]), 0.84; in data set [1] (setting [13]), 0.86. The “Growth Rate” value in data set [2] (setting [6]) amounted to 0.27; in data set [2] (setting [7]), 0.96; in data set [2] (setting [8]), 0.7; in data set [2] (setting [9]), 0.84; in data set [2] (setting [10]) it was 0.67; in data set [2] (setting [11]), 0.59. Besides, the “Growth Rate” value in data set [2] (setting [12]) stood at 0.29; in data set [2] (setting [13]), 0.73; in data set [3] (setting [4]), 1; in data set [3] (setting [5]), 0.86; in data set [3] (setting [6]), 0.99; in data set [3] (setting [7]), 0.75. Besides, the “Growth Rate” value in data set [3] (setting [8]) came to 0.8; in data set [3] (setting [9]), 0.84; in data set [3] (setting [10]), 0.81; in data set [3] (setting [11]) it was 0.92; in data set [3] (setting [12]) it was 0.83.
`Br.Oc1cc2c(cc1O)C(c1ccccc1)CNCC2` (stereo not drawn): the “Growth Rate” value turned out to be 0.49 in data set [1] (setting [6]); 1 in data set [1] (setting [7]); 0.47 in data set [1] (setting [8]); 0.55 in data set [1] (setting [10]); 0.99 in data set [1] (setting [11]); 0.98 in data set [1] (setting [12]). Further, the “Growth Rate” value is listed as 0.09 in data set [2] (setting [4]); -0.21 in data set [2] (setting [5]); 0.99 in data set [3] (setting [4]); 0.61 in data set [3] (setting [5]); 0.78 in data set [3] (setting [6]); -0.1 in data set [3] (setting [7]). The “Growth Rate” value turned out to be 0.62 in data set [3] (setting [8]); 0.43 in data set [3] (setting [9]); 0.92 in data set [3] (setting [10]); 0.37 in data set [3] (setting [11]); 0.67 in data set [3] (setting [13]).
`COc1cc2nc(N3CCN(C(=O)C4CCCO4)CC3)nc(N)c2cc1OC.Cl.O.O` (stereo not drawn) [TERAZOSIN HYDROCHLORIDE]: the “Growth Rate” value is reported as 0.74 in data set [1] (setting [5]); 0.56 in data set [1] (setting [6]); 0.76 in data set [1] (setting [7]); 0.73 in data set [1] (setting [8]); 0.88 in data set [1] (setting [10]); 0.99 in data set [1] (setting [12]). Also, the “Growth Rate” value in data set [2] (setting [4]) is 0.68; in data set [2] (setting [5]), 0.43; in data set [2] (setting [7]) it was 0.32; in data set [2] (setting [9]), 0.84; in data set [2] (setting [11]) it was 0.8; in data set [2] (setting [13]), 0.57. The “Growth Rate” value in data set [3] (setting [4]) came out at 0.72; in data set [3] (setting [5]), 0.29; in data set [3] (setting [6]), 0.91; in data set [3] (setting [8]), 0.69; in data set [3] (setting [9]), 0.83; in data set [3] (setting [10]) it was 0.78. Besides, the figures for the “Growth Rate” value in data set [3] (setting [11]), in data set [3] (setting [12]) and in data set [3] (setting [13]) were 0.79, 0.87 and 0.79, respectively.
Turning to `COc1cc(Br)c(S(=O)(=O)Nc2ccc(C(F)(F)F)c(O[C@@H]3CCN(C)C3)c2)cc1OC`, the “Growth Rate” value is listed as -1 in data set [1] (setting [5]); 0.02 in data set [1] (setting [6]); 0.61 in data set [1] (setting [10]); 1 in data set [1] (setting [11]); 0.77 in data set [1] (setting [12]); -0.5 in data set [2] (setting [6]). Moreover, the “Growth Rate” value is reported as -0.63 in data set [2] (setting [7]); -0.19 in data set [2] (setting [8]); -0.22 in data set [2] (setting [9]); -0.12 in data set [2] (setting [10]); 0.19 in data set [2] (setting [11]); -0.01 in data set [2] (setting [12]). Also, the “Growth Rate” value is 0.1 in data set [2] (setting [13]); 0.96 in data set [3] (setting [4]); 0.09 in data set [3] (setting [7]); 0.38 in data set [3] (setting [9]); 0.94 in data set [3] (setting [11]).
As to `CC(=O)O[C@H]1C(=O)[C@@]2(C)[C@H]([C@H](OC(=O)c3ccccc3)[C@]3(O)C[C@H](OC(=O)[C@H](O)[C@@H](NC(=O)c4ccccc4)c4ccccc4)C(C)=C1C3(C)C)[C@]1(OC(C)=O)CO[C@@H]1C[C@@H]2O` [PACLITAXEL], the “Growth Rate” value in data set [1] (setting [4]) is -0.24; in data set [1] (setting [5]) it was 0.29; in data set [1] (setting [6]), 0.37; in data set [1] (setting [7]), -0.14; in data set [1] (setting [8]) it was 0.12; in data set [1] (setting [9]), -0.2. Also, the “Growth Rate” value in data set [1] (setting [10]) is on record as 0.09; in data set [1] (setting [11]) it was -0.14; in data set [1] (setting [12]), 0.07; in data set [1] (setting [13]), -0.09; in data set [2] (setting [6]), -0.93; in data set [2] (setting [7]), -0.73. The “Growth Rate” value in data set [2] (setting [8]) is -0.65; in data set [2] (setting [9]), -0.32; in data set [2] (setting [10]) it was -0.57; in data set [2] (setting [11]), 0.02; in data set [2] (setting [12]), -0.4; in data set [2] (setting [13]) it was 0.16. Besides, the “Growth Rate” value in data set [3] (setting [6]) is on record as -0.58; in data set [3] (setting [7]), -0.59; in data set [3] (setting [8]), -0.24; in data set [3] (setting [9]) it was -0.18; in data set [3] (setting [10]), -0.17; in data set [3] (setting [11]) it was -0.18. The “Growth Rate” value is listed as -0.03 in data set [3] (setting [12]) and -0.1 in data set [3] (setting [13]).
For `Cc1cc(C)cc([C@H]2c3cc(C)ccc3NC(=O)CN2C(=O)c2ccc(Br)s2)c1`, the “Growth Rate” value is -0.56 in data set [1] (setting [4]); 0.12 in data set [1] (setting [6]); 0.65 in data set [1] (setting [8]); 0.52 in data set [1] (setting [10]); 0.88 in data set [1] (setting [11]); 0.67 in data set [1] (setting [12]). In addition, the “Growth Rate” value in data set [1] (setting [13]) was determined as 0.94; in data set [2] (setting [4]), 0.07; in data set [2] (setting [5]), 0.88; in data set [2] (setting [6]), 0.06; in data set [2] (setting [8]) it was 0.6; in data set [2] (setting [9]), 0.64. Besides, the “Growth Rate” value in data set [2] (setting [10]) is 0.44; in data set [2] (setting [12]), 0.33; in data set [2] (setting [13]), 0.97; in data set [3] (setting [4]), -0.3; in data set [3] (setting [5]) it was 0.03; in data set [3] (setting [6]), 0.95. Also, the “Growth Rate” value was 0.79 in data set [3] (setting [8]); 0.81 in data set [3] (setting [9]); 0.58 in data set [3] (setting [10]); 0.92 in data set [3] (setting [11]); 0.65 in data set [3] (setting [12]); 0.83 in data set [3] (setting [13]).
Regarding `OCc1cc(C(O)CNCCCCCCOCCCCc2ccccc2)ccc1O` (stereo not drawn) [SALMETEROL], the “Growth Rate” value in data set [1] (setting [6]) was determined as 0.56; in data set [1] (setting [8]), 0.56; in data set [1] (setting [9]) it was 0.98; in data set [1] (setting [10]) it was 0.81; in data set [1] (setting [12]) it was 0.95; in data set [2] (setting [4]), 0.1. Further, the “Growth Rate” value in data set [2] (setting [5]) was found to be 0.63; in data set [2] (setting [9]), 0.59; in data set [2] (setting [11]), 0.72; in data set [3] (setting [6]), 0.2; in data set [3] (setting [7]) it was 0.28; in data set [3] (setting [8]), 0.7. Moreover, the “Growth Rate” value in data set [3] (setting [9]) is reported as 0.57; in data set [3] (setting [10]), 0.75; in data set [3] (setting [11]) it was 0.72; in data set [3] (setting [12]), 0.7; in data set [3] (setting [13]), 0.71.
As for `CC1(C)SSC(C)(C)[C@@H](NC(=O)[C@@H](N)Cc2ccc(O)cc2)C(=O)NCC(=O)N[C@@H](Cc2ccccc2)C(=O)N[C@H]1C(=O)O.O=C(O)C(F)(F)F`, the “Growth Rate” value in data set [1] (setting [5]) is listed as -0.57; in data set [1] (setting [7]), 0.94; in data set [1] (setting [11]) it was 0.98; in data set [1] (setting [13]), 0.94; in data set [2] (setting [4]) it was 0.24; in data set [2] (setting [5]), 0.08. The “Growth Rate” value is 0.67 in data set [2] (setting [6]); 0.94 in data set [2] (setting [12]); 0.77 in data set [3] (setting [4]); 0.73 in data set [3] (setting [6]); 0.85 in data set [3] (setting [9]); 0.85 in data set [3] (setting [10]).
